The record followed here is BindingDB's records for doi:10.1073/pnas.0511292103 (Genomics Institute of The Novartis Research Foundation, 2006).

This assay has as its target T1, Ret proto-oncogene (Homo sapiens, UniProt Q9UE13).
T1 sequence (Q9UE13 whole entry): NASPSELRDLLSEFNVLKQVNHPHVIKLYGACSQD

As a reminder, the Ki is the equilibrium dissociation constant of an inhibitor or competing ligand from its target. Regarding `Cc1ccc(NC(=O)c2ccc(CN3CCN(C)CC3)cc2)cc1Nc1nccc(-c2cccnc2)n1`, the Ki was more than 10 µM.
The same measure for `Cc1cn(-c2cc(NC(=O)c3ccc(C)c(Nc4nccc(-c5cccnc5)n4)c3)cc(C(F)(F)F)c2)cn1` [AMN 107]: 8.68 µM.
